Patent US20140141099A1, “DRUG DISCOVERY METHODS” (Vertex Pharmaceuticals Incorporated, priority 2007, published 2014)
pKi: −log10 of the molar value. Read-outs that look alike come from different tables or passages of the source.

Assays:
Aurora-2 (Aurora A) = molecular target: T1, Aurora-2 (Aurora A) (Homo sapiens, UniProt O14965); assay: Aurora-2 (Aurora A) Inhibition Assay (coupled enzyme assay); assay type: biochemical
T1 sequence (O14965 1-403): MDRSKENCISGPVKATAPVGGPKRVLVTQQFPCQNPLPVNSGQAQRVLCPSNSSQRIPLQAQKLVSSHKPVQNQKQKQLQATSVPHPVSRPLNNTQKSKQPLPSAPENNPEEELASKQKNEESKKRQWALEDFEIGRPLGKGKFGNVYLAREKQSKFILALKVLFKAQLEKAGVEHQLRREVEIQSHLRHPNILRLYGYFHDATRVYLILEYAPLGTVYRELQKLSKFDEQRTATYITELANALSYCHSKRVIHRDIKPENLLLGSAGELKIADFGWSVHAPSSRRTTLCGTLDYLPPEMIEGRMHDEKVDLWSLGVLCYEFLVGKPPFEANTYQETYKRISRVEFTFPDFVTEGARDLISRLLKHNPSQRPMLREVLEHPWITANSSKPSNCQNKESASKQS
Method: Assays were carried out in a mixture of 100 mM Hepes (pH7.5), 10 mM MgCl2, 1 mM DTT, 25 mM NaCl, 2.5 mM phosphoenolpyruvate, 300 μM NADH, 30 μg/ml pyruvate kinase and 10 μg/ml lactate dehydrogenase. […] Assays were carried out at 30° C. and in the presence of 40 nM Aurora-2.
An assay stock buffer solution was prepared containing all of the reagents listed above, with the exception of Aurora-2 and the test compound of interest. […] The plate was preincubated for 10 minutes at 30° C. and the reaction initiated by addition of 10 μl of Aurora-2. Initial reaction rates were determined with a Molecular Devices SpectraMax Plus plate reader over a 10 minute time course. IC50 and Ki data were calculated from non-linear regression analysis using the Prism software package (GraphPad Prism version 3.0cx for Macintosh, GraphPad Software, San Diego Calif., USA).

Aurora-1 (Aurora B) = Aurora-1 (Aurora B) (Homo sapiens, UniProt Q96GD4); assay: Aurora-1 (Aurora B) Inhibition Assay (Radiometric); assay type: biochemical
Method: An assay buffer solution was prepared which consisted of 25 mM HEPES (pH 7.5), 10 mM MgCl2, 0.1% BSA and 10% glycerol. […] To 22 μL of the Aurora-B solution, in a 96-well plate, was added 2 μl of a compound stock solution in DMSO and the mixture allowed to equilibrate for 10 minutes at 25° C. The enzyme reaction was initiated by the addition of 16 μl stock [γ-^33P]-ATP solution (˜20 nCi/μL) prepared in assay buffer, to a final assay concentration of 800 μM. The reaction was stopped after 3 hours by the addition of 16 μL 500 mM phosphoric acid and the levels of ^33P incorporation into the peptide substrate were determined by the following method.
A phosphocellulose 96-well plate (Millipore, Cat no. MAPHNOB50) was pre-treated with 100 μL of a 100 mM phosphoric acid prior to the addition of the enzyme reaction mixture (40 μL). The solution was left to soak on to the phosphocellulose membrane for 30 minutes and the plate subsequently washed four times with 200 μL of a 100 mM phosphoric acid. […] Levels of non-enzyme catalyzed background radioactivity were determined by adding 16 μL of the 500 mM phosphoric acid to control wells, containing all assay components (which acts to denature the enzyme), prior to the addition of the [γ-^33P]-ATP solution. Levels of enzyme catalyzed ^33P incorporation were calculated by subtracting mean background counts from those measured at each inhibitor concentration. […] Ki values were calculated from initial rate data by non-linear regression using the Prism software package (Prism 3.0, Graphpad Software, San Diego, Calif.).

tumor = assay: Animal model of tumor growth inhibition, once a week dosing; assay type: in vivo
Source text: Applicants have discovered that for compounds that display a […] binding mechanism with slow, tight-binding kinetics, the Ki* value is a much better predictive tool for cell potency than is Ki. In some embodiments, such compounds have a strong pharmacodynamic profile, resulting in long term cell activity that would allow for shorter dosing regimens in vivo. A typical dosing regimen for Aurora inhibitors in animal models is, e.g., at least once a day dosing. In one embodiment, applicants' invention allows for selecting compounds that may be dosed less than once a day.

Aurora-1 (Aurora B), sequence (Q96GD4 whole entry): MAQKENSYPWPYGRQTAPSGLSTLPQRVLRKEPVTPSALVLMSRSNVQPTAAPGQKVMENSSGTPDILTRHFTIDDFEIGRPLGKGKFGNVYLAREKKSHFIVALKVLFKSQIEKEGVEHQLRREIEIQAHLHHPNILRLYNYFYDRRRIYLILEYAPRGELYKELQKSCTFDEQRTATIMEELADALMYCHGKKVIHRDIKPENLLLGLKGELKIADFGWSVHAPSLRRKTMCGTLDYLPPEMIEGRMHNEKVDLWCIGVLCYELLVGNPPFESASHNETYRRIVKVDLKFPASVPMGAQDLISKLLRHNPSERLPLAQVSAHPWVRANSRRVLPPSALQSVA

Compound	pKi (Aurora-2 (Aurora A); read-out: Aurora A Ki)	pKi (Aurora-1 (Aurora B))	pKi (Aurora-2 (Aurora A))	tumor growth inhibition (tumor)
Cc1cc(Nc2cc(N3CC(F)(C4CC4)C3)nc(Sc3ccc(NC(=O)CC(F)(F)F)cc3)n2)[nH]n1 [Compound 35]	9.45	8.17	–	–
Cc1cc(Nc2cc(N3CCN(C(C)(C)C)CC3)nc(Sc3ccc(NC(=O)C4CCCC4)cc3)n2)[nH]n1 [Compound 5]	8.46	7.67	–	–
Cc1cc(Nc2cc(N3CC(O)(C4CC4)C3)nc(Sc3ccc(NC(=O)C4CC4)cc3)n2)n[nH]1 [Compound 31]	9.06	8.15	–	–
Cc1cc(Nc2cc(N3CCC3)nc(Sc3ccc(NC(=O)c4ccccc4C(F)(F)F)cc3)n2)[nH]n1 [Compound 13]	9.42	8.35	–	–
CCC(=O)Nc1ccc(Sc2nc(Nc3cc(C)n[nH]3)cc(N3CC(O)(C4CC4)C3)n2)cc1 [Compound 21]	9.41	–	–	–
CCC(=O)Nc1ccc(Sc2nc(Nc3cc(C)n[nH]3)cc(N3CCN(C(C)(C)C)CC3)n2)cc1 [Compound 2]	–	7.95	8.67	very good tumor growth inhibition
Cc1cc(Nc2cc(N3CCN(C(C)(C)C)CC3)nc(Sc3ccc(NC(=O)C4CC4)cc3)n2)[nH]n1 [Compound 3]	8.67	7.65	–	–
C#CC(C)(C)N1CCN(c2cc(Nc3cc(C)n[nH]3)nc(Sc3ccc(NC(=O)CC)cc3)n2)CC1 [Compound 6]	8.74	7.85	–	–
CCC(=O)Nc1ccc(Sc2nc(NCCN3CCCCC3)cc(Nc3cc(C)n[nH]3)n2)cc1 [Compound 1]	8.05	7.46	–	–
CCC(=O)Nc1ccc(Sc2nc(Nc3cc(C)n[nH]3)cc(N3CCN(C(C)(C)CC)CC3)n2)cc1 [Compound 9]	8.59	7.71	–	–
CCC(=O)Nc1ccc(Sc2nc(Nc3cc(C)n[nH]3)cc(N3CCN(C(C)(C)CF)CC3)n2)cc1 [Compound 10]	8.70	7.65	–	–
COc1cccc(Sc2nc(NC3=NN=C(C)C3)cc(N3CCN(C(C)(C)C)CC3)n2)c1 [Compound 4]	8.07	6.84	–	–
CCC(=O)Nc1ccc(Sc2nc(Nc3cc(C)n[nH]3)cc(N3CCC(N4CCCC4)CC3)n2)cc1 [Compound 7]	8.34	7.30	–	–
CCC(=O)Nc1ccc(Sc2nc(Nc3cc(C)n[nH]3)cc(N3CCN(C(C)(C)CO)CC3)n2)cc1 [Compound 8]	8.56	7.81	–	–

More lines, main results first:

pKi (Aurora-2 (Aurora A); read-out: Aurora A Ki)	pKi (Aurora-1 (Aurora B))	pKi (Aurora-2 (Aurora A))	Compound	tumor growth inhibition (tumor)
8.11	7.55	–	CCC(=O)Nc1ccc(Sc2nc(Nc3cc(C)n[nH]3)cc(N3CCC(NC(C)(C)C)CC3)n2)cc1 [Compound 11]	–
9.46	8.35	–	CCC(=O)Nc1ccc(Sc2nc(Nc3cc(C)n[nH]3)cc(N3CC(O)(C(C)(C)C)C3)n2)cc1 [Compound 20]	–
9.28	6.21	–	CCC(=O)Nc1ccc(Sc2nc(Nc3cc(C)n[nH]3)cc(N3CC=C(C(C)(C)C)CC3)n2)cc1 [Compound 23]	–
9.46	6.99	–	CCC(=O)Nc1ccc(Sc2nc(Nc3cc(C)n[nH]3)cc(N3CCC(O)(C(C)(C)C)C3)n2)cc1 (stereo not drawn) [Compound 27]	–
8.28	7.34	–	CCOc1ccc(Sc2nc(Nc3cc(C)n[nH]3)cc(N3CCN(C(C)(C)C)CC3)n2)cc1 [Compound 36]	–
9.15	8.14	–	Cc1cc(Nc2cc(N3CCC3)nc(Sc3ccc(NC(=O)CC(F)(F)F)cc3)n2)n[nH]1 [Compound 12]	–
8.16	7.19	–	Cc1cc(Nc2cc(N3CCC(N4CCCC4)CC3)nc(Sc3ccc4ccccc4c3)n2)[nH]n1 [Compound 33]	–
9.20	7.29	–	Cc1cc(Nc2cc(N3CC(O)(C4CC4)C3)nc(Sc3ccc4ccccc4c3)n2)n[nH]1 [Compound 34]	–
8.24	7.01	–	CCC(=O)Nc1ccc(Sc2nc(Nc3cc(C)n[nH]3)cc(N3CC[C@H](N4CCCC4)C3)n2)cc1 [Compound 16]	–
9.05	6.64	–	CCC(=O)Nc1ccc(Sc2nc(Nc3cc(C)n[nH]3)cc(N3CCC(C#N)(c4ccccc4OC)CC3)n2)cc1 [Compound 25]	–
8.94	–	–	CCC(=O)Nc1ccc(Sc2nc(Nc3cc(C)n[nH]3)cc(N3CC(O)(C(C)C)C3)n2)cc1 [Compound 30]	–
8.27	7.46	–	CCC(=O)Nc1ccc(Sc2nc(Nc3cc(C)n[nH]3)cc(N3CC4CN(C(C)C)CC4C3)n2)cc1 (stereo not drawn) [Compound 19]	–
9.46	8.40	–	Cc1cc(Nc2cc(N3CCC(F)C3)nc(Sc3ccc(NC(=O)CC(F)(F)F)cc3)n2)[nH]n1 (stereo not drawn) [Compound 32]	–
9.44	6.85	–	CCC(=O)Nc1ccc(Sc2nc(Nc3cc(C)n[nH]3)cc(N3CCC(O)(c4cc(F)ccc4OC)CC3)n2)cc1 [Compound 24]	–
8.69	7.22	–	CCC(=O)Nc1ccc(Sc2nc(Nc3cc(C)n[nH]3)cc(N3CCC4(CCN(C)C4)CC3)n2)cc1 [Compound 17]	–
8.87	7.84	–	CCC(=O)Nc1ccc(Sc2nc(Nc3cc(C)n[nH]3)cc(N3CC(C)(OC(C)C)C3)n2)cc1 [Compound 28]	–
8.60	7.50	–	CCC(=O)Nc1ccc(Sc2nc(Nc3cc(C)n[nH]3)cc(N3CCC(N(C)C(C)(C)C)CC3)n2)cc1 [Compound 15]	–
9.17	8.30	–	CCC(=O)Nc1ccc(Sc2nc(Nc3cc(C)n[nH]3)cc(N3CC(C)(N4CCCC4)C3)n2)cc1 [Compound 22]	–
8.56	7.84	–	CCC(=O)Nc1ccc(Sc2nc(Nc3cc(C4CC4)n[nH]3)cc(N3CCC(N4CCCC4)CC3)n2)cc1 [Compound 18]	–
9.23	7.87	–	CCC(=O)Nc1ccc(Sc2nc(Nc3cc(C)n[nH]3)cc(N3CCC(O)(C(C)(C)C)CC3)n2)cc1 [Compound 14]	–
9.13	7.60	–	CCC(=O)Nc1ccc(Sc2nc(Nc3cc(C)n[nH]3)cc(N3CC4(C3)OCC4(C)C)n2)cc1 [Compound 26]	–
